# What was measured:
# [1] = system: salivation; experiment: Single ascending dose study: salivation (pharmacodynamics); assay type: in vivo, healthy adult volunteers; details: Group 2: 8 mg fesoterodine fumarate 4 hours prior to 40 mg Compound 1, vs placebo pre-treatment (FIG. 2)
# Protocol: MTD was established at the dose which produced mild to moderate cholinergic adverse effects. Cholinergic effects were monitored for each dose, including pupillometry and salivation.
# Group 2 evaluated tolerability of Compound 1 at Group 1 MTD with or without fesoterodine fumarate co-administration. Subjects received 8 mg of fesoterodine fumarate tablet or matched placebo tablet 4 hours prior to administration of 40 mg of Compound 1.
# [2] = Clinical observations during 7-day oral dosing in beagle dogs; details: for Clinical Observation: Group 2: fesoterodine fumarate 3 mg/kg/day PO, individual dog
# [3] = system: Compound 1 induced salivation; experiment: Fesoterodine dose-response antagonistic effect on Compound 1 induced salivation in anaesthetized rats; assay type: in vivo, Sprague Dawley rats
# Protocol: An in vivo primary pharmacology study evaluating the fesoterodine fumarate dose-response antagonistic effect on Compound 1 induced salivation in anaesthetized male Sprague Dawley rats was conducted. […] Intravenous fesoterodine doses were administered at […]. Fesoterodine was dosed 10 minutes prior to dosage of Compound 1. All animals were normal with no observed abnormality detected in clinical signs or behavior. Salivation was measured by using oral dry swab in anesthetized rats with the calculated difference between the dry swab weight and the wet swab weight indicating the weight of saliva produced. Samples were collected post-dosing for one hour at 10-minute intervals.
# [4] = Fesoterodine 0.0078 mg/mL IV 10 min prior to Compound 1 (1.5 mg/kg) IV
# [5] = Fesoterodine 0.0156 mg/mL IV 10 min prior to Compound 1 (1.5 mg/kg) IV
# [6] = Fesoterodine 0.0312 mg/mL IV 10 min prior to Compound 1 (1.5 mg/kg) IV
# [7] = Fesoterodine 0.0625 mg/mL IV 10 min prior to Compound 1 (1.5 mg/kg) IV
# [8] = Fesoterodine 0.125 mg/mL IV 10 min prior to Compound 1 (1.5 mg/kg) IV
# [9] = Fesoterodine 0.25 mg/mL IV 10 min prior to Compound 1 (1.5 mg/kg) IV
# [10] = Fesoterodine 0.5 mg/mL IV 10 min prior to Compound 1 (1.5 mg/kg) IV
smiles,measurement,setting,value
"CC(C)C(=O)Oc1ccc(CO)cc1[C@H](CCN(C(C)C)C(C)C)c1ccccc1 [Fesoterodine, fesoterodine]",effect of fesoterodine pre-treatment on the increase in salivation post Compound 1 dosing,[1]; listed as fesoterodine,nearly abolished both subjective reports of hypersalivation and the objective increase in saliva volume
same,effect of fesoterodine pre-treatment on the increase in salivation post Compound 1 dosing,[1]; listed as fesoterodine fumarate,not observed
same,peripheral side effects observed after dosing,"[2]; Group 1 Compound 1 1.5 mg/kg/day PO alone, Group 3 with fesoterodine fumarate 3 mg/kg/day PO, 7 days",substantially reduced the peripheral effects
same,Clinical Observation,[2]; 7 day period,none
same,Clinical Observation,[2]; day 1,"For D2001, miosis was found 1 hr 10 min after dosing on day 1. 2 hr"
same,"Salivation (mg) (mean value), 10 min",[3]; [4],347.49 mg
same,"Salivation (mg) (mean value), 20 min",[3]; [4],90.03 mg
same,"Salivation (mg) (mean value), 30 min",[3]; [4],26.31 mg
same,"Salivation (mg) (mean value), 40 min",[3]; [4],10.29 mg
same,"Salivation (mg) (mean value), 50 min",[3]; [4],9.96 mg
same,"Salivation (mg) (mean value), 60 min",[3]; [4],7.74 mg
same,"Salivation (mg) (mean value), Total",[3]; [4],491.83 mg
same,"Salivation (mg) (mean value), 10 min",[3]; [5],163.43 mg
same,"Salivation (mg) (mean value), 20 min",[3]; [5],69.8 mg
same,"Salivation (mg) (mean value), 30 min",[3]; [5],30.58 mg
same,"Salivation (mg) (mean value), 40 min",[3]; [5],16.26 mg
same,"Salivation (mg) (mean value), 50 min",[3]; [5],11.66 mg
same,"Salivation (mg) (mean value), 60 min",[3]; [5],5.71 mg
same,"Salivation (mg) (mean value), Total",[3]; [5],297.45 mg
same,"Salivation (mg) (mean value), 10 min",[3]; [6],95.37 mg
same,"Salivation (mg) (mean value), 20 min",[3]; [6],61.86 mg
same,"Salivation (mg) (mean value), 30 min",[3]; [6],29.68 mg
same,"Salivation (mg) (mean value), 40 min",[3]; [6],8.31 mg
same,"Salivation (mg) (mean value), 50 min",[3]; [6],8.78 mg
same,"Salivation (mg) (mean value), 60 min",[3]; [6],6.64 mg
same,"Salivation (mg) (mean value), Total",[3]; [6],210.64 mg
same,"Salivation (mg) (mean value), 10 min",[3]; [7],66.8 mg
same,"Salivation (mg) (mean value), 20 min",[3]; [7],27.58 mg
same,"Salivation (mg) (mean value), 30 min",[3]; [7],12.89 mg
same,"Salivation (mg) (mean value), 40 min",[3]; [7],9.18 mg
same,"Salivation (mg) (mean value), 50 min",[3]; [7],6.56 mg
same,"Salivation (mg) (mean value), 60 min",[3]; [7],2.45 mg
same,"Salivation (mg) (mean value), Total",[3]; [7],125.47 mg
same,"Salivation (mg) (mean value), 10 min",[3]; [8],45.22 mg
same,"Salivation (mg) (mean value), 20 min",[3]; [8],21.91 mg
same,"Salivation (mg) (mean value), 30 min",[3]; [8],7.85 mg
same,"Salivation (mg) (mean value), 40 min",[3]; [8],5.06 mg
same,"Salivation (mg) (mean value), 50 min",[3]; [8],4.73 mg
same,"Salivation (mg) (mean value), 60 min",[3]; [8],3.5 mg
same,"Salivation (mg) (mean value), Total",[3]; [8],88.27 mg
same,"Salivation (mg) (mean value), 10 min",[3]; [9],7 mg
same,"Salivation (mg) (mean value), 20 min",[3]; [9],3.13 mg
same,"Salivation (mg) (mean value), 30 min",[3]; [9],3.17 mg
same,"Salivation (mg) (mean value), 40 min",[3]; [9],2.15 mg
same,"Salivation (mg) (mean value), 50 min",[3]; [9],2.49 mg
same,"Salivation (mg) (mean value), 60 min",[3]; [9],1.37 mg
same,"Salivation (mg) (mean value), Total",[3]; [9],19.31 mg
same,"Salivation (mg) (mean value), 10 min",[3]; [10],7.23 mg
same,"Salivation (mg) (mean value), 20 min",[3]; [10],2.83 mg
same,"Salivation (mg) (mean value), 30 min",[3]; [10],1.21 mg
same,"Salivation (mg) (mean value), 40 min",[3]; [10],4.11 mg
same,"Salivation (mg) (mean value), 50 min",[3]; [10],2.5 mg
same,"Salivation (mg) (mean value), 60 min",[3]; [10],1.8 mg
same,"Salivation (mg) (mean value), Total",[3]; [10],19.69 mg
same,Fesoterodine effect with Compound 1 on salivation,[3]; Fesoterodine 0.0078-0.5 mg/mL IV prior to Compound 1,significant decrease of salivation in a consistent dose-responsive manner
